Measurements published in PMC10929621, “An Engineered Biarylitide Cross-Linking P450 from RiPP Biosynthesis Generates Alternative Cyclic Peptides” (Organic Letters, 2024).

System: Blt-M1 (P450Blt A231V-H234L)
Assay: Deuterium loss on cyclization by Blt-M1
Format: biochemical, Micromonospora sp. MW-13
Conditions: deuterium at C2 of His-3, HRMS
Protocol: Finally, we sought to clarify the nature of the cross-link within 5 formed by Blt-M1 as no equivalent cross-linked tripeptide natural product has been identified. Scaled enzymatic cyclization of Nle-2 (N-terminal Met residue was replaced with norleucine (Nle) to avoid sulfoxidation due to the release of reactive oxygen intermediates during catalysis) and purification of Nle-5 were then performed. […] We turned to the use of peptide deuteration to resolve this cross-link, which based on WT biarylitide reactivity could be either C–C or C–N. This required synthesis and turnover of a deuterated version of Nle-2 with deuterium at C2 of the His-3 residue (Nle-2^3d).[17] […]
The UV-visible spectra of the P450 enzymes were obtained using a Jasco V-750 spectrophotometer as has been previously reported.1 The spectra were measured until it reached a stable peak. CO difference spectra were obtained using a Jasco V-750 spectrophotometer at 30 °C as has been previously described.1 The UV-vis spectra were measured between 390–600 nm every 5 mins until the spectra was stable.1, 4 Substrate interaction with the P450s was measured using UV-visible absorbance spectroscopy carried out on a Jasco V-750 spectrophotometer according to previously reported protocol.1 Amplitudes of the different spectra were extrapolated (ΔA = Amax - Amin) and plotted against the substrate concentration. […]

Substance: NleRHLY (sidechain bridge or staple) [Nle-5, cross-linked peptide from enzymatic cyclization of Nle-2 by Blt-M1]
- loss of deuterium upon cyclization: loss of deuterium
